Test results reported in PMC7705865 (2020).

Assays:
[1] = system: 1cf (DNA, aptamer, artificial imidazole 2'-deoxyribonucleoside (Im) replacing T at 4 and A at 24 (Im:Im mispair)) ACCTGGGGGAGTATTGCGGAGGAAGGT; experiment: elution from ATP-agarose column; conditions: 300 mM Na+, 5 mM Mg2+; 20 mM MOPS pH 7.4; 3 mM GMP; no elution of aptamer from immobilised ATP
[2] = system: 1af (DNA, aptamer) ACCTGGGGGAGTATTGCGGAGGAAGGT; experiment: elution from ATP-agarose column; conditions: 300 mM Na+, 5 mM Mg2+; 20 mM MOPS pH 7.4; 3 mM GMP; no elution of aptamer from immobilised ATP
[3] = system: 1df (DNA, aptamer, artificial imidazole 2'-deoxyribonucleoside (Im) replacing G at 11 and C at 17 (Im:Im mispair)) ACCTGGGGGAGTATTGCGGAGGAAGGT; experiment: elution from ATP-agarose column; conditions: 300 mM Na+, 5 mM Mg2+; 20 mM MOPS pH 7.4; 3 mM GMP; no elution of aptamer from immobilised ATP
[4] = system: 1bf (DNA, aptamer, artificial imidazole 2'-deoxyribonucleoside (Im) replacing C at 3 and G at 25 (Im:Im mispair)) ACCTGGGGGAGTATTGCGGAGGAAGGT; experiment: elution from ATP-agarose column; conditions: 300 mM Na+, 5 mM Mg2+; 20 mM MOPS pH 7.4; 3 mM GMP; no elution of aptamer from immobilised ATP
[5] = system: 1cf (DNA, aptamer, artificial imidazole 2'-deoxyribonucleoside (Im) replacing T at 4 and A at 24 (Im:Im mispair)) ACCTGGGGGAGTATTGCGGAGGAAGGT; experiment: fluorescence, structure-switching strand displacement; conditions: 300 mM Na+, 5 mM Mg2+; 20 mM MOPS pH 7.4, 22 °C; 1 mM AMP; DABCYL strand 1q displaced
[6] = system: 1af (DNA, aptamer) ACCTGGGGGAGTATTGCGGAGGAAGGT; experiment: as above; conditions: 300 mM Na+, 5 mM Mg2+; 20 mM MOPS pH 7.4, 22 °C; 1 mM AMP; DABCYL strand 1q displaced
[7] = system: 1df (DNA, aptamer, artificial imidazole 2'-deoxyribonucleoside (Im) replacing G at 11 and C at 17 (Im:Im mispair)) ACCTGGGGGAGTATTGCGGAGGAAGGT; experiment: as above; conditions: 300 mM Na+, 5 mM Mg2+; 20 mM MOPS pH 7.4, 22 °C; 1 mM AMP; DABCYL strand 1q displaced
[8] = system: 1bf (DNA, aptamer, artificial imidazole 2'-deoxyribonucleoside (Im) replacing C at 3 and G at 25 (Im:Im mispair)) ACCTGGGGGAGTATTGCGGAGGAAGGT; experiment: as above; conditions: 300 mM Na+, 5 mM Mg2+; 20 mM MOPS pH 7.4, 22 °C; 1 mM AMP; DABCYL strand 1q displaced
[9] = system: 1a (DNA, aptamer) ACCTGGGGGAGTATTGCGGAGGAAGGT; experiment: fluorescence, structure-switching strand displacement (system B); conditions: 300 mM Na+, 5 mM Mg2+; 20 mM MOPS pH 8.1, 22 °C; 1 mM AMP; strands 2f (fluorescein) and 2q (DABCYL) displaced

Row | binding [1] | binding [2] | binding [3] | binding [4] | binding [5] | binding [6] | binding [7] | binding [8] | binding [9] | SMILES
1 | no | no | no | no | – | – | – | – | – | Nc1nc2c(ncn2[C@@H]2O[C@H](COP(=O)(O)O)[C@@H](O)[C@H]2O)c(=O)[nH]1
2 | – | – | – | – | yes | yes | weak | yes | yes | Nc1ncnc2c1ncn2[C@@H]1O[C@H](COP(=O)(O)O)[C@@H](O)[C@H]1O
